Columns and labels:
[1] = Open-label SAD and MAD study, pharmacokinetics in healthy subjects and patients (Example 5); assay type: in vivo, humans; settings: oral, 2.5 to 20 mg/day for 7 days, steady-state
Experimental: (§1) This study was an open-label, SAD, and MAD study to evaluate the safety, tolerability, and PK of Formulation 1 in healthy subjects and patients with a diagnosis of schizophrenia or schizoaffective disorder. Healthy subjects received subtherapeutic Formulation 1 doses of up to 105 mg and patients received therapeutic doses of up to 566 mg. […] Subjects and patients who met screening eligibility were assigned to 1 of 8 active cohorts, or the Vehicle Cohort, as detailed in Table 5.1 below.
All cohorts included assessments of safety, tolerability, and intensive PK sampling.
Except for the starting dose of 70 mg, the study followed an adaptive design in which the decision to dose-escalate with Formulation 1 was based on a review of the PK and safety data from the preceding lower dose of Formulation 1.
An extensive PK collection scheme was applied following the last oral dose to fully characterize the PK at steady-state.
In multiple-dose cohorts, the 3 doses of Formulation 1 were administered on day 1, day 29 (week 4) and day 57 (week 8), respectively.

[2] = Open-label SAD and MAD study, safety and tolerability in healthy subjects and patients (Example 5); assay type: in vivo, humans; settings: washout period following oral olanzapine, 4/127
Experimental: as §1
Safety was assessed during the study by evaluating AEs, clinical laboratory test results (serum, hematology, urinalysis, and prolactin), vital signs measurements, ECG, physical examination, injection site pain, local tolerability, and leakage assessment. […]
The safety endpoints in this study included incidence of adverse events, changes from baseline in ECG parameters, selected clinical laboratory values (including prolactin) and vital signs, as well as changes in neurological and clinical symptom assessments (eg, PANSS, ESRS, AIMS, BARS, CGI-S, C-SSRS), and other safety measures that were evaluated throughout the study.

[3] = after oral administration; cited from earlier work

Cc1cc2c(s1)Nc1ccccc1N=C2N1CCN(C)CC1 [olanzapine, 2-methyl-4-(4-methyl-1-piperazinyl)-10H-thieno[2,3-b][1,5]benzodiazepine]
Systemic exposure (Cmax, AUCt,ss) versus dose [1]: dose-proportional | Participants withdrawn due to adverse events [2]: 3.1% | Half life [3]: approximately 30 hours

Source: patent US20260216206A1 (MEDINCELL SA, priority 2023, published 2026)
